Experimental data: patent US20250313569A1, “Pharmaceutical Compounds And Compositions As Modulators Of MAS-Related G-Protein Receptor X2” (Enanta Pharmaceuticals, Inc., priority 2024, published 2025)

Biological target: T1, MRGPRX2 LAD2 (Homo sapiens, UniProt Q96LB1)
T1 construct: host or cells: LAD2 human mast cells
T1 sequence (Q96LB1 1-330): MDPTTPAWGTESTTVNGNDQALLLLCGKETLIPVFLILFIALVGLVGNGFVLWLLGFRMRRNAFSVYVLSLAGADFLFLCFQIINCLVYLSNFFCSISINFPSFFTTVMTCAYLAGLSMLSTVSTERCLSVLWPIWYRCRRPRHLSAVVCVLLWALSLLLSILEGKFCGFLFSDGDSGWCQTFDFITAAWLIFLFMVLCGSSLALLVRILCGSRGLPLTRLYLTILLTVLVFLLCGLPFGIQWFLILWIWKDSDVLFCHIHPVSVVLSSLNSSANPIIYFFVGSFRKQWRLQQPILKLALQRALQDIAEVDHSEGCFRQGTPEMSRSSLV
Test: LAD2 β-hexosaminidase release assay (degranulation), Cortistatin-14 at EC75
Assay type: cell-based
Conditions: LAD2 cells; 1 hour compound incubation, Cortistatin-14 at EC75 for 30 minutes; percent degranulation (β-hexosaminidase)
Method: LAD2 cells obtained from the NIH were cultured in StemPro34 (Gibco) serum-free media supplemented with GlutaMax, penicillin and streptomycin, and 100 ng/mL SCF (Invitrogen). Cells were maintained in a 37° C., 5% CO2 humidified incubator at a concentration of 2-5E5 cells/mL, with hemidepletion once a week.
One day prior to the assay, cells were starved of SCF at a concentration of 2.3E5 cells/mL. On the day of the assay cells were washed twice in Tyrode's Buffer containing 0.04% BSA (assay buffer) and plated in a 96 well-v-bottom assay plate at 20,000 cells per well in 80 μL of assay buffer. Compounds were solubilized at 10 mM DMSO and added as a 10-fold overconcentrated 8-point curve in assay buffer in a volume of 10 μL using the JANUS liquid handler. Assay plates were incubated for 1 hour at 37° C. Cortistatin-14 was diluted in assay buffer to […] its predetermined EC75 and added to the assay plates in a volume of 10 μL. Assay plates were incubated at 37° C. for 30 minutes. After incubation, cells were pelleted and 50 μL of supernatant from each well was transferred to a 96 well flat bottom plate containing 100 μL of substrate solution (3.5 mg/mL p-Nitrophenyl-N-acetyl-β-D-glucosaminide (Sigma Aldrich) in 40 mM Citrate Buffer (Thermo Fisher)). The remaining cell pellets were lysed with 150 μL of 0.1% Triton-X-100 and mixed thoroughly. 50 μL of lysate was transferred to a 96-well flat bottom plate containing 100 μL of substrate solution. Plates with supernatants and lysates were incubated at 37° C. for 90 minutes prior to addition of 50 μL of 400 mM Glycine buffer (pH 10.7). The plates were read on a Perkin Elmer Envision plate reader at an Abs of 405 nanometers. Percent degranulation was calculated and Xlfit was used to calculate an EC50 value for each compound using a 4-parameter logistic curve fitting model. EC50 ranges are reported as follows: A<100 nM; B 0.1-1 μM; C>1 μM.

SMILES | EC50
CC(C)(O)Cn1cc(C(=O)N[C@H]2C[C@@H](Nc3cc(C(F)(F)F)nc4ccc(Cl)cc34)CN(C(=O)c3ccccc3F)C2)c(Cl)n1 [Example 85] | < 100 nM
O=C(N[C@H]1C[C@@H](Nc2cc(C(F)(F)F)nc3ccc(Cl)cc23)CN(C(=O)C(F)F)C1)c1cn(C[C@H](O)C(F)F)nc1Cl [Example 120] | < 100 nM
COCC(F)(F)C(=O)N1C[C@@H](NC(=O)c2cn(CC(C)(C)O)nc2Cl)C[C@@H](Nc2cc(C(F)(F)F)nc3ccc(Cl)cc23)C1 [Example 79] | < 100 nM
CC(C)(O)C(O)Cn1cc(C(=O)N[C@H]2C[C@@H](Nc3cc(C(F)(F)F)nc4ccc(Cl)cc34)CN(C(=O)C(F)F)C2)c(Cl)n1 (stereo partly shown) [Example 122] | < 100 nM
CC(=O)N1C[C@@H](NC(=O)N2CCc3cn(C)nc3C2)C[C@@H](Nc2cc(C(F)(F)F)nc3ccc(Cl)cc23)C1 [Example 129] | < 100 nM
C[C@@H](O)Cn1cc(C(=O)N[C@H]2C[C@@H](Nc3cc(C(F)(F)F)nc4ccc(Cl)cc34)CN(C(=O)C(F)F)C2)c(Cl)n1 [Example 123] | < 100 nM
CC(=O)N1C[C@@H](NC(=O)c2cn(CC(C)(C)O)nc2C(F)F)C[C@@H](Nc2cc(C(F)(F)F)nc3ccc(Cl)cc23)C1 [Example 103] | < 100 nM
CC(=O)N1C[C@@H](NC(=O)c2cn(CC(F)(F)F)nc2C2CC2)C[C@@H](Nc2cc(C(F)(F)F)nc3ccc(OC(F)(F)F)cc23)C1 [Example 132] | < 100 nM
Cn1nnc(N2C[C@@H](NC(=O)c3cn(CC(F)(F)F)nc3C3CC3)C[C@@H](Nc3cc(C(F)(F)F)nc4ccc(Cl)cc34)C2)n1 [Example 93] | < 100 nM
CC(C)(O)Cn1cc(C(=O)N[C@H]2C[C@@H](Nc3cc(C(F)(F)F)nc4ccc(Cl)cc34)CN(C(=O)C(F)(F)c3ccc(C#N)cc3)C2)c(Cl)n1 [Example 88] | < 100 nM
CC(=O)N1C[C@@H](NC(=O)c2ccc3[nH]ccc3c2)C[C@@H](Nc2cc(C(F)(F)F)nc3ccc(Cl)cc23)C1 [Example 111] | < 100 nM
C[C@H](O)Cn1cc(C(=O)N[C@H]2C[C@@H](Nc3cc(C(F)(F)F)nc4ccc(Cl)cc34)CN(C(=O)C(F)F)C2)c(Cl)n1 [Example 124] | < 100 nM
CC(C)(O)Cn1cc(C(=O)N[C@H]2C[C@@H](Nc3cc(C(F)(F)F)nc4ccc(Cl)cc34)CN(C(=O)[C@H]3CC3(F)F)C2)c(Cl)n1 [Example 78] | < 100 nM
O=C(N[C@H]1C[C@@H](Nc2cc(C(F)(F)F)nc3ccc(Cl)cc23)CN(C(=O)C(F)(F)F)C1)c1cn(CC(F)(F)F)nc1C1CC1 [Example 89] | < 100 nM
CC(C)(O)Cn1cc(C(=O)N[C@H]2C[C@@H](Nc3cc(C(F)(F)F)nc4ccc(Cl)cc34)CN(C(=O)COC(F)(F)F)C2)c(Cl)n1 [Example 80] | < 100 nM
CC(C)(O)Cn1cc(C(=O)N[C@H]2C[C@@H](Nc3cc(C(F)(F)F)nc4ccc(Cl)cc34)CN(C(=O)C3(F)CC3)C2)c(Cl)n1 [Example 81] | < 100 nM
CC(=O)N1C[C@@H](NC(=O)c2cn(CS(C)(=O)=O)nc2Cl)C[C@@H](Nc2cc(C(F)(F)F)nc3ccc(Cl)cc23)C1 [Example 101] | < 100 nM
O=C(N[C@H]1C[C@@H](Nc2cc(C(F)(F)F)nc3ccc(Cl)cc23)CN(C(=O)C(F)F)C1)c1cn(C[C@@H](O)C(F)(F)F)nc1Cl [Example 116] | < 100 nM
CC(=O)N1C[C@@H](NC(=O)c2cn(CC(F)(F)F)nc2C2CC2)C[C@@H](Nc2cc(C(F)(F)F)nc3cc(F)c(Cl)cc23)C1 [Example 133] | < 100 nM
CC(=O)N1C[C@@H](NC(=O)c2cn(CC(F)(F)F)nc2C2CC2)C[C@@H](Nc2c(F)c(C(F)(F)F)nc3ccc(Cl)cc23)C1 [Example 136] | < 100 nM
CC(C)(O)Cn1cc(C(=O)N[C@H]2C[C@@H](Nc3cc(C(F)(F)F)nc4ccc(Cl)cc34)CN(C3CC(F)(F)C3)C2)c(Cl)n1 [Example 76] | 100 to 1000 nM
CC(=O)N1C[C@@H](NC(=O)c2cn(C3CC(F)(F)C3)nc2C(F)F)C[C@@H](Nc2cc(C(F)(F)F)nc3ccc(Cl)cc23)C1 [Example 108] | < 100 nM
CC(C)(O)Cn1cc(C(=O)N[C@H]2C[C@@H](Nc3cc(C(F)(F)F)nc4ccc(Cl)cc34)CN(C(=O)OCC(F)(F)F)C2)c(Cl)n1 [Example 84] | < 100 nM

SMILES | EC50
Cc1nn(CC(C)(C)O)cc1C(=O)N[C@H]1C[C@@H](Nc2cc(C(F)(F)F)nc3ccc(Cl)cc23)CN(C(=O)C(F)F)C1 [Example 117] | < 100 nM
CC(=O)N1C[C@@H](NC(=O)c2cn(CC(C)(C)O)c3ncccc23)C[C@@H](Nc2cc(C(F)(F)F)nc3ccc(Cl)cc23)C1 [Example 98] | < 100 nM
O=C(C(F)F)N1C[C@@H](Nc2nccc3ccccc23)C[C@@H](Nc2cc(C(F)(F)F)nc3ccc(Cl)cc23)C1 [Example 125] | < 100 nM
CC(=O)N1C[C@@H](NC(=O)c2cn(CC(F)(F)F)nc2C(F)(F)F)C[C@@H](Nc2cc(C(F)(F)F)nc3ccc(Cl)cc23)C1 [Example 96] | < 100 nM
CC(C)(O)Cn1cc(C(=O)N[C@H]2C[C@@H](Nc3cc(C(F)(F)F)nc4ccc(Cl)cc34)CN(C(=O)[C@H](NC(=O)C(F)(F)F)c3ccccc3)C2)c(Cl)n1 [Example 86] | < 100 nM
CC(C)(O)Cn1cc(C(=O)N[C@H]2C[C@@H](Nc3c(F)c(C(F)(F)F)nc4ccc(Cl)cc34)CN(C(=O)C(C)(C)F)C2)c(Cl)n1 [Example 83] | < 100 nM
CC(C)(O)Cn1cc(C(=O)N[C@H]2C[C@@H](Nc3cc(C(F)(F)F)nc4ccc(Cl)cc34)CN(C(=O)C3(C(F)(F)F)CC3)C2)c(Cl)n1 [Example 82] | < 100 nM
O=C(N[C@H]1C[C@@H](Nc2cc(C(F)(F)F)nc3ccc(Cl)cc23)CN(C(=O)C(F)F)C1)N1CC[C@H](O)C1 [Example 127] | < 100 nM
CC(=O)N1C[C@@H](NC(=O)c2cn(CC(F)F)nc2C2CC2)C[C@@H](Nc2cc(C(F)(F)F)nc3ccc(Cl)cc23)C1 [Example 110] | < 100 nM
O=C(N[C@H]1C[C@@H](Nc2cc(C(F)(F)F)nc3ccc(Cl)cc23)CN(C(=O)C(F)F)C1)N1CCCC2(CC2)C1 [Example 128] | < 100 nM
CC(=O)N1C[C@@H](NC(=O)c2ccc3cc[nH]c3c2)C[C@@H](Nc2cc(C(F)(F)F)nc3ccc(Cl)cc23)C1 [Example 112] | < 100 nM
CC(=O)N1C[C@@H](NC(=O)c2cn(CC(F)(F)F)nc2C2CC2)C[C@@H](Nc2cc(C(F)(F)F)nc3c(F)cc(Cl)cc23)C1 [Example 139] | < 100 nM
O=C(N[C@H]1C[C@@H](Nc2cc(C(F)(F)F)nc3ccc(Cl)cc23)CN(C(=O)[C@H]2CC2(F)F)C1)c1cn(CC(F)(F)F)nc1C1CC1 [Example 74] | < 100 nM
C[C@@H]1CCCN1C(=O)N[C@H]1C[C@@H](Nc2cc(C(F)(F)F)nc3ccc(Cl)cc23)CN(C(=O)C(F)F)C1 [Example 126] | < 100 nM
CC(=O)N1C[C@@H](NC(=O)c2c[nH]c3cccnc23)C[C@@H](Nc2cc(C(F)(F)F)nc3ccc(Cl)cc23)C1 [Example 97] | < 100 nM
O=C(N[C@H]1C[C@@H](Nc2cc(C(F)(F)F)nc3ccc(Cl)cc23)CN(C(=O)[C@@H]2CC2(F)F)C1)c1cn(CC(F)(F)F)nc1C1CC1 [Example 75] | < 100 nM
COCC(F)(F)C(=O)N1C[C@@H](NC(=O)c2cn(CC(F)(F)F)nc2C2CC2)C[C@@H](Nc2cc(C(F)(F)F)nc3ccc(Cl)cc23)C1 [Example 87] | < 100 nM
O=C(N[C@H]1C[C@@H](Nc2cc(C(F)(F)F)nc3ccc(Cl)cc23)CN(c2ccccn2)C1)c1cn(CC(F)(F)F)nc1C1CC1 [Example 92] | < 100 nM
O=C(N[C@H]1C[C@@H](Nc2cc(C(F)(F)F)nc3ccc(Cl)cc23)CN(C(=O)C(F)F)C1)c1cn(C2CCC(F)(F)CC2)nc1Cl [Example 121] | < 100 nM
CC(=O)N1C[C@@H](NC(=O)c2cn(CC(F)F)nc2C(F)(F)F)C[C@@H](Nc2cc(C(F)(F)F)nc3ccc(Cl)cc23)C1 [Example 99] | < 100 nM
CC(=O)N1C[C@@H](NC(=O)c2cn(CC(F)(F)F)nc2C2CC2)C[C@@H](Nc2cc(C(F)(F)F)nc3ccc(Cl)cc23)C1 [Example 109] | < 100 nM
CC(=O)N1C[C@@H](NC(=O)c2c[nH]c3ncccc23)C[C@@H](Nc2cc(C(F)(F)F)nc3ccc(Cl)cc23)C1 [Example 94] | < 100 nM
CC(=O)N1C[C@@H](NC(=O)c2cn(CC(C)(C)O)nc2C)C[C@@H](Nc2cc(C(F)(F)F)nc3ccc(Cl)cc23)C1 [Example 104] | < 100 nM
